# Tests used:
# Test in all cases: relative viability (nuclei count vs DMSO), 5 days (fraction); higher = more cells survive
# VE-821 + Tozasertib = compound: CS(=O)(=O)c1ccc(-c2cnc(N)c(C(=O)Nc3ccccc3)n2)cc1 [VE-821] + Cc1cc(Nc2cc(N3CCN(C)CC3)nc(Sc3ccc(NC(=O)C4CC4)cc3)n2)n[nH]1 [Tozasertib] (partner 0.1 µM)
# Summary of the method: (§1)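 Relative viability was taken as the ratio of nuclei in treated wells to nuclei in vehicle wells. Lung cancer cell lines in 1536-well plates received compounds by pin tool one day after seeding, either one drug alone or a fixed anchor-drug dose plus five library-drug doses (not always all listed) in √10 steps. Nuclei were counted on 4× images after 5 days of treatment, and values are medians of duplicate plates.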
# Vismodegib + OSI-027 = compound: CS(=O)(=O)c1ccc(C(=O)Nc2ccc(Cl)c(-c3ccccn3)c2)c(Cl)c1 [Vismodegib] + COc1cccc2cc(-c3nc([C@H]4CC[C@H](C(=O)O)CC4)n4ncnc(N)c34)[nH]c12 [OSI-027] (partner 0.5 µM)
# Summary of the method: as §1
# Ruxolitinib + Vorinostat = compound: N#CC[C@H](C1CCCC1)n1cc(-c2ncnc3[nH]ccc23)cn1 [Ruxolitinib] + O=C(CCCCCCC(=O)Nc1ccccc1)NO [Vorinostat] (partner 1 µM)
# Summary of the method: as §1
# Ruxolitinib + Pictilisib = compound: N#CC[C@H](C1CCCC1)n1cc(-c2ncnc3[nH]ccc23)cn1 [Ruxolitinib] + CS(=O)(=O)N1CCN(Cc2cc3nc(-c4cccc5[nH]ncc45)nc(N4CCOCC4)c3s2)CC1 [Pictilisib] (partner 1 µM)
# Summary of the method: as §1
Cell Line,relative viability (VE-821 + Tozasertib; first compound 0.08 µM),relative viability (VE-821 + Tozasertib; first compound 0.253 µM),relative viability (VE-821 + Tozasertib; first compound 0.8 µM),relative viability (VE-821 + Tozasertib; first compound 2.53 µM),relative viability (VE-821 + Tozasertib; first compound 8 µM),relative viability (Vismodegib + OSI-027; first compound 0.08 µM),relative viability (Vismodegib + OSI-027; first compound 0.253 µM),relative viability (Vismodegib + OSI-027; first compound 0.8 µM),relative viability (Vismodegib + OSI-027; first compound 2.53 µM),relative viability (Vismodegib + OSI-027; first compound 8 µM),relative viability (Ruxolitinib + Vorinostat; first compound 0.08 µM),relative viability (Ruxolitinib + Vorinostat; first compound 0.253 µM),relative viability (Ruxolitinib + Vorinostat; first compound 0.8 µM),relative viability (Ruxolitinib + Vorinostat; first compound 2.53 µM),relative viability (Ruxolitinib + Vorinostat; first compound 8 µM),relative viability (Ruxolitinib + Pictilisib; first compound 0.08 µM),relative viability (Ruxolitinib + Pictilisib; first compound 0.253 µM),relative viability (Ruxolitinib + Pictilisib; first compound 0.8 µM),relative viability (Ruxolitinib + Pictilisib; first compound 2.53 µM),relative viability (Ruxolitinib + Pictilisib; first compound 8 µM)
LCLC-97TM1,0.307,0.224,0.213,0.484,0.184,0.673,0.522,0.525,0.507,0.523,0.741,0.604,0.734,0.722,0.63,0.182,0.153,0.214,0.158,0.198
LCLC-103H,0.505,0.424,0.389,0.458,0.362,0.462,0.461,0.364,0.476,0.476,0.89,0.795,0.806,0.735,0.675,0.58,0.597,0.592,0.524,0.597
LK-2,0.172,0.174,0.161,0.197,0.202,0.264,0.187,0.181,0.182,0.226,0.265,0.26,0.254,0.287,0.209,–,0.595,0.61,0.741,0.673
LOU-NH91,0.69,0.666,0.665,0.701,0.54,0.777,0.689,0.673,0.693,0.709,0.864,0.886,0.952,0.897,0.917,0.477,0.493,0.524,0.514,0.56
LU99A,0.264,0.299,0.277,0.24,0.227,0.35,0.271,0.24,0.278,0.287,0.537,0.482,0.542,0.416,0.426,0.321,0.315,0.401,0.339,0.316
LXF-289,0.246,0.196,0.205,0.193,0.119,0.764,0.764,0.795,0.823,0.59,0.744,0.818,0.793,0.714,0.705,0.785,0.797,0.804,0.739,0.498
NCI-H23,0.323,0.559,0.263,0.192,0.179,0.745,0.742,0.599,0.464,0.438,0.668,0.628,0.763,0.642,0.43,0.519,0.474,0.603,0.439,0.415
NCI-H322M,0.542,0.457,0.451,0.434,0.297,0.677,0.522,0.486,0.525,0.537,0.951,1.01,1.05,1.3,1.4,0.4,0.604,0.491,0.611,0.665
NCI-H358,0.12,0.105,0.0999,0.0895,0.0895,0.775,0.711,0.8,0.807,0.853,0.624,0.645,0.673,0.509,0.417,0.413,0.343,0.342,0.268,0.265
NCI-H441,0.78,0.399,0.666,0.564,0.511,0.932,0.693,0.638,0.518,0.601,0.648,0.571,0.907,0.689,0.747,0.44,0.497,0.533,0.445,0.39
NCI-H460,0.492,0.343,0.0499,0.0583,0.0489,0.644,0.603,0.684,0.622,0.559,0.847,0.774,0.819,0.599,0.516,0.179,0.309,0.307,0.386,0.114
NCI-H520,0.493,0.457,–,0.435,0.858,0.284,0.227,0.298,0.314,0.309,0.758,0.858,0.752,0.844,0.654,–,0.258,0.236,0.251,0.34
NCI-H596,0.916,0.82,0.798,0.954,0.774,0.791,0.634,0.672,0.734,0.781,0.713,0.638,0.743,0.589,0.454,0.379,0.339,0.387,0.418,0.386
NCI-H647,0.372,0.26,0.261,0.238,0.164,0.665,0.605,0.671,0.486,0.579,0.694,0.729,0.683,0.538,0.286,–,0.358,0.449,0.362,0.514
NCI-H650,0.744,0.744,0.643,0.765,0.707,0.604,0.513,0.454,0.511,0.491,0.532,0.423,0.406,0.44,0.429,–,0.881,1.21,0.699,0.649
NCI-H661,0.351,0.354,0.336,0.343,0.336,0.735,0.705,0.723,0.738,0.731,0.833,0.822,0.839,0.792,0.802,0.41,0.322,0.379,–,0.465
NCI-H727,0.601,0.633,0.505,0.67,0.488,0.57,0.451,0.446,0.528,0.655,1.2,1.19,1.4,1.12,1.49,0.427,0.384,0.6,0.309,0.725
